Each structure is given as a SMILES string. The source made the active and inactive calls. The rule behind the calls is not given here.

One data set has as its system RAW264.7. Put plainly: Antiinflammatory activity in LPS-induced mouse RAW264.7 cells assessed as inhibition of NO production at 20 uM measured after 24 hrs by Griess reagent based assay.
Conditions: not given
The class given is functional, cell-based. On the technique in general: The Griess reaction detects nitrite, a stable product of nitric oxide.
As to `CC[C@H](C)[C@H]1NC(=O)CNC(=O)[C@H](Cc2ccccc2)NC(=O)c2cccc(O)c2NC(=O)[C@H]([C@H](C)c2ccc(OC)cc2)NC1=O`, the outcome was Active.

`CC[C@@H](C)[C@H]1NC(=O)CNC(=O)[C@H](CC(C)C)NC(=O)c2cccc(O)c2NC(=O)[C@H]([C@H](C)c2ccc(OC)cc2)NC1=O`: the outcome was Active.

Regarding `COc1ccc([C@@H](C)[C@@H]2NC(=O)[C@@H](C(C)C)NC(=O)CNC(=O)[C@H](CCC(C)C)NC(=O)c3cccc(O)c3NC2=O)cc1`, the result was Active.

In the case of `COc1ccc([C@@H](C)[C@@H]2NC(=O)[C@@H](C(C)C)NC(=O)CNC(=O)[C@H](Cc3ccccc3)NC(=O)c3cccc(O)c3NC2=O)cc1`, the outcome was Active.

For `CC[C@H](C)[C@H]1NC(=O)CNC(=O)[C@H](CCC(C)C)NC(=O)c2cccc(O)c2NC(=O)[C@H]([C@H](C)c2ccc(OC)cc2)NC1=O`, the result was Active.

Take `COc1ccc([C@@H](C)[C@@H]2NC(=O)[C@@H](CC(C)C)NC(=O)CNC(=O)[C@H](CCC(C)C)NC(=O)c3cccc(O)c3NC2=O)cc1`: the result was Active.

Turning to `COc1ccc([C@@H](C)[C@@H]2NC(=O)[C@@H](CC(C)C)NC(=O)CNC(=O)[C@@H](Cc3ccccc3)NC(=O)c3cccc(O)c3NC2=O)cc1`, the outcome was Active.

For a further data set, the system named is RAW264.7. Kind of data set: Cytotoxicity against LPS-induced mouse RAW264.7 cells assessed as reduction in cell viability at 20 uM incubated for 24 hrs by MTT assay. The class given is toxicity, cell-based. To be noted: raw264.7, 24 h.
Take `CC[C@H](C)[C@H]1NC(=O)CNC(=O)[C@H](Cc2ccccc2)NC(=O)c2cccc(O)c2NC(=O)[C@H]([C@H](C)c2ccc(OC)cc2)NC1=O`: the Activity entry is recorded as “Non-Toxic”.

As to `CC[C@@H](C)[C@H]1NC(=O)CNC(=O)[C@H](CC(C)C)NC(=O)c2cccc(O)c2NC(=O)[C@H]([C@H](C)c2ccc(OC)cc2)NC1=O`, the Activity entry was “Non-Toxic”.

Regarding `COc1ccc([C@@H](C)[C@@H]2NC(=O)[C@@H](C(C)C)NC(=O)CNC(=O)[C@H](CCC(C)C)NC(=O)c3cccc(O)c3NC2=O)cc1`, the Activity result is given as “Non-Toxic”.

Take `COc1ccc([C@@H](C)[C@@H]2NC(=O)[C@@H](C(C)C)NC(=O)CNC(=O)[C@H](Cc3ccccc3)NC(=O)c3cccc(O)c3NC2=O)cc1`: the Activity entry was “Non-Toxic”.

Take `CC[C@H](C)[C@H]1NC(=O)CNC(=O)[C@H](CCC(C)C)NC(=O)c2cccc(O)c2NC(=O)[C@H]([C@H](C)c2ccc(OC)cc2)NC1=O`: the Activity entry is listed as “Non-Toxic”.

As for `COc1ccc([C@@H](C)[C@@H]2NC(=O)[C@@H](CC(C)C)NC(=O)CNC(=O)[C@H](CCC(C)C)NC(=O)c3cccc(O)c3NC2=O)cc1`, the Activity entry is on record as “Non-Toxic”.

As to `COc1ccc([C@@H](C)[C@@H]2NC(=O)[C@@H](CC(C)C)NC(=O)CNC(=O)[C@@H](Cc3ccccc3)NC(=O)c3cccc(O)c3NC2=O)cc1`, the Activity entry is given as “Non-Toxic”.

A further data set relates to RAW264.7. Kind of data set: Antiinflammatory activity in LPS-induced mouse RAW264.7 cells assessed as inhibition of NO production measured after 24 hrs by Griess reagent based analysis. The class given is functional, cell-based. To be noted: dose 0.1-20 µM.
Consider `COc1ccc([C@@H](C)[C@@H]2NC(=O)[C@@H](CC(C)C)NC(=O)CNC(=O)[C@@H](Cc3ccccc3)NC(=O)c3cccc(O)c3NC2=O)cc1`, for which the Activity result was “Dose-Dependent Effect”.

A further data set concerns RAW264.7. Put plainly: Antiinflammatory activity in LPS-induced mouse RAW264.7 cells assessed as reduction in iNOS protein expression at 20 uM measured after 24 hrs by Western blot analysis. The class given is functional, cell-based.
Conditions: not given
In general terms: In western blotting, separated proteins are transferred to a membrane and probed.
As for `COc1ccc([C@@H](C)[C@@H]2NC(=O)[C@@H](CC(C)C)NC(=O)CNC(=O)[C@@H](Cc3ccccc3)NC(=O)c3cccc(O)c3NC2=O)cc1`, the result was Active.

In another data set the test system is RAW264.7. Put plainly: Antiinflammatory activity in LPS-induced mouse RAW264.7 cells assessed as inhibition of NLRP3 protein expression at 20 uM measured after 24 hrs by Western blot analysis. The class given is functional, cell-based.
Conditions: not given
Take `COc1ccc([C@@H](C)[C@@H]2NC(=O)[C@@H](CC(C)C)NC(=O)CNC(=O)[C@@H](Cc3ccccc3)NC(=O)c3cccc(O)c3NC2=O)cc1`: the outcome was Active.

The values are drawn from ChEMBL document CHEMBL5370563, “Molecular Networking-Guided Isolation of Cyclopentapeptides from the Hydrothermal Vent Sediment Derived Fungus Aspergillus pseudoviridinutans TW58-5 and Their Anti-inflammatory Effects” (J Nat Prod, 2023).
